In the test the target is T1, MRGPRX2 (Homo sapiens, UniProt Q96LB1).
T1 sequence (Q96LB1 1-330): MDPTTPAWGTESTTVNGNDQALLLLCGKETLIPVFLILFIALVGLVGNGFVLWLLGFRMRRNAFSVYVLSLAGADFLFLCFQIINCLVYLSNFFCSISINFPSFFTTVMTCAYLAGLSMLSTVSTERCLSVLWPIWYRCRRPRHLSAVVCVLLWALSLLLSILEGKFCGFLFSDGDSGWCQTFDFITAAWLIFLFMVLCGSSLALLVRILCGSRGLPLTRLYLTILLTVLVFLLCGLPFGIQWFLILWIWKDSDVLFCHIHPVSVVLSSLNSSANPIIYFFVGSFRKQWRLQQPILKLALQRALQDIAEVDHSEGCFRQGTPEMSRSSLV
Description: MRGPRX2 reporter cell assay (NFAT-RE luciferase, Substance P stimulation). It is filed as cell-based. As to conditions: U2OS cells stably transfected with MRGPRX2 and NFAT-RE luciferase reporter, Substance P at EC80. The essentials: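 U2OS cells stably expressing MRGPRX2 and an NFAT-RE luc2P reporter, pre-incubated 30 min at 37° C with compound (0.5% DMSO), then stimulated with Substance P at EC80 for 6 h. Luminescence after ONE-GLO; percent inhibition fitted by four-parameter logistic to IC50.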
For orientation: A reporter such as luciferase makes a cellular process visible.

The values below come from patent US20250326772A1, “MRGPRX2 ANTAGONISTS, PHARMACEUTICAL COMPOSITION INCLUDING MRGPRX2 ANTAGONIST, AND METHOD OF TREATING MRGPRX2-MEDIATED DISEASE OR DISORDER” (KYORIN PHARMACEUTICAL CO., LTD., priority 2024, published 2025).

Molecules are shown by their SMILES. Where only a bound is given, the exact number is not on record here.

By IC50 is commonly meant the midpoint of a concentration-inhibition curve. `COc1ncc(F)cc1-c1c(-c2c(C(F)F)nn3c2OCCC3)[nH]c2ncccc12` [EX. 431]: the IC50 (class symbols) is under 10 nM.

In turn, `N#Cc1nscc1-c1c(-c2c(C(F)F)nn3c2OCCC3)[nH]c2ncccc12` [EX. 403] showed an IC50 (class symbols) of under 10 nM.

Take `Cc1cc(-c2c(-c3c(C(F)F)nn4c3OC[C@@H](O)C4)[nH]c3ncccc23)c(C#N)s1` [EX. 458]: the IC50 (class symbols) was under 10 nM.

As for `Cc1cc(-c2c(-c3c(C(F)F)nn4c3OCC4)[nH]c3ncccc23)c(C#N)s1` [EX. 433], the IC50 (class symbols) was under 10 nM.

Turning to `Cn1cc(-c2c(-c3c(C(F)F)nn4c3OC[C@@H](NC(=O)[C@H]3C[C@@H]3F)C4)[nH]c3ncccc23)c(OC(F)F)n1` [EX. 550], under “class symbols”, the IC50 was under 10 nM.

Turning to `CCO[C@@H]1COc2c(-c3[nH]c4ncccc4c3-c3cn(C)nc3OC(F)F)c(C(F)F)nn2C1` [EX. 532], the IC50 (class symbols) was under 10 nM.

`Cn1cc(-c2c(-c3c(C(F)F)nn4c3OC[C@@H](N3CCOC3=O)C4)[nH]c3ncccc23)c(OC(F)F)n1` [EX. 579] came in with an IC50 (class symbols) of under 10 nM.

On to `CN[C@@H]1COc2c(-c3[nH]c4ncccc4c3-c3cn(C)nc3OC(F)F)c(C(F)F)nn2C1` [EX. 582, (S)-3-(3-(3-(difluoromethoxy)-1-methyl-1H-pyrazol-4-yl)-1H-pyrrolo[2,3-b]pyridin-2-yl)-2-(difluoromethyl)-N-methyl-6,7-dihydro-5H-pyrazolo[5,1-b] [1,3]oxazin-6-amine], for which the IC50 (class symbols) was under 10 nM.

Consider `Cn1cc(-c2c(-c3c(C(F)F)nn4c3OC[C@@H](NC(=O)C3(F)CC3)C4)[nH]c3ncccc23)c(OC(F)F)n1` [EX. 588], for which the IC50 (class symbols) was under 10 nM.

Consider `N#Cc1ccccc1-c1c(-c2c[nH]nc2OC(F)F)[nH]c2ncccc12` [EX. 157], for which the IC50 (class symbols) is under 10 nM.

Where the note is “class symbols”, `O[C@@H]1COc2c(-c3[nH]c4ncccc4c3-c3ccccc3)c(C(F)F)nn2C1` [EX. 465] had an IC50 of under 10 nM.

Consider `Cn1cc(-c2c(-c3c(C(F)F)nn4c3OC[C@@H](NC(=O)[C@H]3CC3(F)F)C4)[nH]c3ncccc23)c(OC(F)F)n1` [EX. 553], for which, under “class symbols”, the IC50 is under 10 nM.

`[2H]C([2H])([2H])Oc1ccc(C#N)c(-c2c(-c3c(C)nn4c3OCC[C@@H]4C)[nH]c3ncccc23)c1` [EX. 176] yielded an IC50 (class symbols) of under 10 nM.

Take `Cn1cc(-c2[nH]c3ncccc3c2-c2ccccc2C#N)c(C(F)F)n1` [EX. 146]: the IC50 (class symbols) was under 10 nM.

For the setting “class symbols”, `COc1ccsc1-c1[nH]c2ncccc2c1-c1ccccc1C#N` [EX. 53] displayed a 50% inhibitory concentration (IC50) of under 10 nM.

Where the note is “class symbols”, `C[C@@H](O)C(=O)N[C@@H]1COc2c(-c3[nH]c4ncccc4c3-c3cn(C)nc3OC(F)F)c(C(F)F)nn2C1` [EX. 560] gave an IC50 of under 10 nM.

As for `Cn1cc(-c2c(-c3c(C(F)F)nn4c3OC[C@@H](NCCO)C4)[nH]c3ncccc23)c(OC(F)F)n1` [EX. 558], the IC50 (class symbols) is under 10 nM.

`COc1ccc(C#N)c(-c2c(-c3c(C)nn4c3OCC(NC(C)=O)C4)[nH]c3ncccc23)c1` (stereo not drawn) [EX. 356] gave an IC50 (class symbols) of under 10 nM.

In turn, `C[C@@H](O)COC(=O)N[C@@H]1COc2c(-c3[nH]c4ncccc4c3-c3cn(C)nc3OC(F)F)c(C(F)F)nn2C1` [EX. 568] returned an IC50 (class symbols) of under 10 nM.

Consider `COc1ccc(F)cc1-c1[nH]c2ncccc2c1-c1cc(C)ccc1C#N` [EX. 326], for which, where the note is “class symbols”, the IC50 was under 10 nM.

Turning to `COc1ccc(C#N)c(-c2c(-c3c(C)nn4cc(O)cnc34)[nH]c3ncccc23)c1` [EX. 181], the half-maximal inhibitory concentration (IC50) (class symbols) is under 10 nM.

Where the note is “class symbols”, `COc1ccc(F)cc1-c1[nH]c2ncccc2c1C1=CCCCC1` [EX. 301, 3-(cyclohex-1-en-1-yl)-2-(5-fluoro-2-methoxyphenyl)-1H-pyrrolo[2,3-b]pyridine] returned an IC50 of 100 to 1000 nM.

`[2H]C([2H])([2H])Oc1ccc(C#N)c(-c2c(-c3c(C(F)F)nn4c3OCCC4)[nH]c3ncccc23)c1` [EX. 247] registered an IC50 (class symbols) of under 10 nM.

Consider `N#Cc1ccccc1-c1c(-c2c(C(F)F)nn3c2OCC(O)C3)[nH]c2ncccc12` (stereo not drawn) [EX. 203], for which, under “class symbols”, the IC50 is under 10 nM.

With `Cn1cc(-c2c(-c3c(C(F)F)nn4c3OC[C@@H](O)C4)[nH]c3ncccc23)c(OC(F)F)n1` [EX. 527, (S)-3-(3-(3-(difluoromethoxy)-1-methyl-1H-pyrazol-4-yl)-1H-pyrrolo[2,3-b]pyridin-2-yl)-2-(difluoromethyl)-6,7-dihydro-5H-pyrazolo[5,1-b] [1,3]oxazin-6-ol], the IC50 was 4.4 nM. Under “class symbols”, this compound registered an IC50 of under 10 nM.

Take `COc1ccccc1-c1[nH]c2ncccc2c1-c1cc(C)ccc1C#N` [EX. 316]: under “class symbols”, the IC50 is under 10 nM.

For the setting “class symbols”, `Cc1cc(-c2c(-c3cn(C)nc3C(F)F)[nH]c3ncccc23)c(C#N)s1` [EX. 287] returned an IC50 of under 10 nM.

`CCNC(=O)O[C@@H]1COc2c(-c3[nH]c4ncccc4c3-c3cn(C)nc3OC(F)F)c(C(F)F)nn2C1` [EX. 539]: the IC50 (class symbols) was under 10 nM.

For the setting “class symbols”, `FC(F)Oc1ncccc1-c1c(-c2c(C(F)F)nn3c2OCCC3)[nH]c2ncccc12` [EX. 410] returned an IC50 of under 10 nM.

Take `C[C@@]1(N)COc2c(-c3[nH]c4ncccc4c3-c3cccnc3OC(F)F)c(C(F)F)nn2C1` [EX. 490]: the IC50 (class symbols) was under 10 nM.

Take `Cn1cc(-c2c(-c3c(C(F)F)nn4c3OC[C@@](C)(OCC(N)=O)C4)[nH]c3ncccc23)c(OC(F)F)n1` [EX. 482]: the IC50 (class symbols) is under 10 nM.

As for `Cn1cc(-c2c(-c3c(C(F)F)nn4c3OC[C@@](C)(OCCO)C4)[nH]c3ncccc23)c(OC(F)F)n1` [EX. 493], the IC50 (class symbols) was under 10 nM.

Take `COC(=O)N[C@@H]1COc2c(-c3[nH]c4ncccc4c3-c3cccnc3OC(F)F)c(C(F)F)nn2C1` [EX. 512, methyl(S)-(3-(3-(2-(difluoromethoxy)pyridin-3-yl)-1H-10 pyrrolo[2,3-b]pyridin-2-yl)-2-(difluoromethyl)-6,7-dihydro-5H-pyrazolo[5,1-b] [1,3]oxazin-6-yl) carbamate]: the IC50 (class symbols) is under 10 nM.

As for `CC(C)OC(=O)N[C@@H]1COc2c(-c3[nH]c4ncccc4c3-c3cn(C)nc3OC(F)F)c(C(F)F)nn2C1` [EX. 575], the IC50 (class symbols) was under 10 nM.

`COc1ccc(C#N)c(-c2c(-c3c(C(F)F)nn4c3OC[C@@H](NC(C)=O)C4)[nH]c3ncccc23)c1` [EX. 364]: the IC50 (class symbols) is under 10 nM.

In turn, `[2H]C([2H])([2H])Oc1ccc(C#N)c(-c2c(-c3c(C)nn4cc[nH]c34)[nH]c3ncccc23)c1` [EX. 169] came in with an IC50 (class symbols) of under 10 nM.

For the compound `[2H]C([2H])([2H])Oc1ccc(C#N)c(-c2c(-c3c(C4CC4)nn4c3OCCC4)[nH]c3ncccc23)c1` [EX. 177], for the setting “class symbols”, the IC50 is under 10 nM.

As for `COc1ccccc1-c1[nH]c2ncccc2c1-c1cc(C)ccc1F` [EX. 314], where the note is “class symbols”, the IC50 is under 10 nM.

Where the note is “class symbols”, `O[C@@H]1COc2c(-c3[nH]c4ncccc4c3-c3ccc(F)cc3OC(F)F)c(C(F)F)nn2C1` [EX. 467] displayed an IC50 of under 10 nM.

`Cc1ccc(F)c(-c2c(-c3cn(C)nc3C(F)(F)F)[nH]c3ncccc23)c1` [EX. 299]: the IC50 (class symbols) was under 10 nM.

As for `N#Cc1ccccc1-c1c(-c2n[nH]cc2C(F)(F)F)[nH]c2ncccc12` [EX. 264], the IC50 (class symbols) is under 10 nM.

Take `CO[C@]1(C)COc2c(-c3[nH]c4ncccc4c3-c3cn(C)nc3OC(F)F)c(C(F)F)nn2C1` [EX. 435]: the midpoint of inhibition, the IC50, lay at 4.1 nM. Under “class symbols”, this compound returned an IC50 of under 10 nM.

Consider `COc1ccc(C#N)c(-c2c(-c3c(C(F)F)nn4c3OC[C@H](O)C4)[nH]c3ncccc23)c1` [EX. 368], for which the IC50 (class symbols) was under 10 nM.

For `Cn1cc(-c2c(-c3c(C(F)F)nn4c3OC[C@@H](NC(=O)[C@H]3C[C@H](O)C3)C4)[nH]c3ncccc23)c(OC(F)F)n1` [EX. 565], the IC50 (class symbols) is under 10 nM.

Under “class symbols”, `Cc1ccc(C#N)c(-c2c(-c3cn(C)nc3C(F)F)[nH]c3ncccc23)c1` [EX. 99] displayed an IC50 of under 10 nM.

The compound `O[C@@H]1COc2c(-c3[nH]c4ncccc4c3-c3ccncc3OC(F)F)c(C(F)F)nn2C1` [EX. 463] displayed an IC50 (class symbols) of under 10 nM.

For the compound `C[C@H](O)C(=O)N[C@@H]1COc2c(-c3[nH]c4ncccc4c3-c3cn(C)nc3OC(F)F)c(C(F)F)nn2C1` [EX. 561], for the setting “class symbols”, the IC50 is under 10 nM.

Where the note is “class symbols”, `COc1ccc(C#N)c(-c2c(-c3c(C)nn4cccnc34)[nH]c3ncccc23)c1` [EX. 245] yielded an IC50 of under 10 nM.

On to `N#Cc1ncccc1-c1c(-c2c(C(F)F)nn3c2OC[C@@H](O)C3)[nH]c2ncccc12` [EX. 477], for which the IC50 (class symbols) was under 10 nM.

For the compound `CCc1nn2c(c1-c1[nH]c3ncccc3c1-c1cn(C)nc1OC(F)F)OC[C@@H](NS(C)(=O)=O)C2` [EX. 545], for the setting “class symbols”, the IC50 is under 10 nM.

In turn, `O[C@@H]1COc2c(-c3[nH]c4ncccc4c3-c3cccc(F)c3OC(F)F)c(C(F)F)nn2C1` [EX. 466] came in with an IC50 (class symbols) of under 10 nM.

Under “class symbols”, `CCO[C@@H]1COc2c(-c3[nH]c4ncccc4c3-c3cn(C)nc3C#N)c(C(F)F)nn2C1` [EX. 502] came in with an IC50 of under 10 nM.

Where the note is “class symbols”, `CO[C@@H]1COc2c(-c3[nH]c4ncccc4c3-c3cccnc3OC(F)F)c(C)nn2C1` [EX. 497] displayed an IC50 of under 10 nM.

Where the note is “class symbols”, `FC(F)Oc1ncccc1-c1c(-c2c(C(F)F)nn3c2OC[C@@H](F)C3)[nH]c2ncccc12` [EX. 437] returned an IC50 of under 10 nM.

`CS(=O)(=O)N[C@@H]1COc2c(-c3[nH]c4ncccc4c3-c3cccnc3OC(F)F)c(C(F)F)nn2C1` [EX. 521] yielded an IC50 (class symbols) of under 10 nM.

Consider `COC(=O)N[C@@H]1COc2c(-c3[nH]c4ncccc4c3-c3cccnc3OC(F)F)c(C)nn2C1` [EX. 513], for which the IC50 (class symbols) is under 10 nM.

For the compound `[2H]c1cnc2[nH]c(-c3cn(C)nc3C(F)F)c(-c3cc(OC([2H])([2H])[2H])ccc3C#N)c2c1` [EX. 89], the IC50 (class symbols) was under 10 nM.

For `Cc1ccc(F)c(-c2c(-c3cn(C)nc3C(F)F)[nH]c3ncccc23)c1` [EX. 133], under “class symbols”, the IC50 was under 10 nM.
